# Measured values taken from patent EP4775575A1, “COMPOUND USED AS CDK4 KINASE INHIBITOR AND USE THEREOF” (TYK Medicines, Inc., priority 2023, dated 2025).
# Assays:
# CDK6/CyclinD3 = target: T1, CDK6/CyclinD3 (Homo sapiens, UniProt Q00534); experiment: Kinase activity assay (MSA, EZ Reader) against CDK6; type: biochemical; settings: CDK6/CyclinD3 5.00 nM, ATP 350 µM, FL-Peptide34, 10mM MgCl2
# T1 construct: purchased Carna 04-107
# [1] = tested on: Human breast cancer cells MCF-7; experiment: Cell anti-proliferation assay (MTT), MCF-7; type: cell-based; settings: Homo sapiens, MCF7, 120 h, MCF-7 cells, incubated for 5 days
# Outline: (§1)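 Cells in DMEM with 10% FBS were seeded at 50,000 cells/mL and grown overnight at 37 °C, 5% CO2, then treated at 9 concentrations (3-fold serial dilution, 0.1% DMSO medium). MTT was added for 3 h, formazan dissolved in acidified isopropanol/NP-40, and absorbance read at 570 nm.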
# [2] = tested on: human ovarian cancer cells A2780; experiment: Cell anti-proliferation assay (MTT), A2780; type: cell-based; settings: Homo sapiens, 120 h, incubated for 5 days
# Outline: as §1
# [3] = Preclinical pharmacokinetic study in rats; type: in vivo, Sprague-Dawley (SD) rats; settings: male SD rats, oral gavage (p.o.) 10 mg/kg, plasma; for AUC(0-t) / Cmax / Tmax: Sprague-Dawley, rat
# Experimental: Healthy adult Sprague-Dawley (SD) rats, male, 6-8 weeks old, weighing 200-300 g. EDTA-Na2 anticoagulant. Analytical balance, animal weighing scale, magnetic stirrer, refrigerated centrifuge, single-channel manual pipette, etc. About 10 mg of the test sample was precisely weighed, dissolved in a calculated volume of 5% DMSO, followed by addition of 10% solutol HS-15 and 85% normal saline. The mixture was sonicated and vortexed to homogeneity to obtain a solution with a concentration of 1 mg/mL. The solution was freshly prepared before use. Animals were housed in rat cages and fasted overnight (no less than 10 h) before the test, with free access to water. On the day of the test, animals were weighed and marked on the tail. Blank blood samples were collected before administration. The blood was collected via tail vein. • Route of administration: oral gavage (p.o.) • Dose: 10 mg/kg • Dosing volume: 10 mL/kg • Procedure: The rat was held upright with the left hand wearing bite-resistant glove. A 16-gauge gavage needle was inserted through the mouth into the esophagus. The needle was advanced gently without obvious resistance, and the drug solution was injected into the stomach. Whole blood (0.1 mL) were collected from each test animal before administration and at 0.5 […], and 24 h after administration into EDTA-Na2 anticoagulant tubes. The tubes were inverted 3-4 times for mixing, then centrifuged at 10,000 g for 5 min at 4 °C to separate plasma. Plasma samples were stored at -80 °C until analysis. Blood was collected via tail vein. […] The mixture was vortexed for 2 min and centrifuged at 10,000 g for 10 min at 4 °C. Processing of unknown plasma samples: 25 μL of drug-containing rat plasma was transferred, followed by addition of 25 μL of methanol and 200 μL of internal standard solution. The mixture was vortexed for 2 min and centrifuged at 10,000 g for 10 min at 4 °C. The supernatant was collected for LC-MS/MS analysis. A quantitative method for the determination of the test compound was established using a Shimadzu liquid chromatography system coupled with Triple Quad^TM 6500+ AB mass spectrometer. The concentration of the parent drug in plasma was determined. The plasma concentration-time curve was plotted, and the main pharmacokinetic parameters were calculated using a non-compartmental model in winnonlin Phoenix software.
# [4] = tested on: human mantle cell lymphoma cells JEKO-1; experiment: Cell anti-proliferation assay (MTT), JEKO-1; type: cell-based; settings: Homo sapiens, 120 h, JEKO-1 cells, incubated for 5 days
# Outline: as §1
# CDK4/CycD1 = CDK4/CycD1 (Homo sapiens, UniProt P11802); experiment: Kinase activity assay (MSA, EZ Reader) against CDK4
# Chain of CDK4/CycD1 (P11802 whole entry): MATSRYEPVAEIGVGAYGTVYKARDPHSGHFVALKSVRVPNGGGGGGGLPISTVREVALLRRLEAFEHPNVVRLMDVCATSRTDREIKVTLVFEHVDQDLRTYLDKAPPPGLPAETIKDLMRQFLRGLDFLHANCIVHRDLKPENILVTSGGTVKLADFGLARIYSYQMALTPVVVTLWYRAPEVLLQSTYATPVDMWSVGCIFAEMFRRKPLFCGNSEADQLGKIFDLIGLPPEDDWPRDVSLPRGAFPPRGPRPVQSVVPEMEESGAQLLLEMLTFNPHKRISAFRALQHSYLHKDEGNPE
# T1 sequence (Q00534 whole entry): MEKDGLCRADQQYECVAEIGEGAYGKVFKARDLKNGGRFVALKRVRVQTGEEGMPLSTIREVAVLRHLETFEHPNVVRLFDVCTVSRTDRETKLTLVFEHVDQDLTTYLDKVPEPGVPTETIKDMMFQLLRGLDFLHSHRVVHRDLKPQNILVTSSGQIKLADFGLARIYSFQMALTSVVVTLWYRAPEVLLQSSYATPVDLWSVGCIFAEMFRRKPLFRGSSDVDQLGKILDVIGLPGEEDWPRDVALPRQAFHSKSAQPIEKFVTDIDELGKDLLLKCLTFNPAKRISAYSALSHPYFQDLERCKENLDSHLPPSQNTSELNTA
# T1 sequence (P30281 whole entry partner): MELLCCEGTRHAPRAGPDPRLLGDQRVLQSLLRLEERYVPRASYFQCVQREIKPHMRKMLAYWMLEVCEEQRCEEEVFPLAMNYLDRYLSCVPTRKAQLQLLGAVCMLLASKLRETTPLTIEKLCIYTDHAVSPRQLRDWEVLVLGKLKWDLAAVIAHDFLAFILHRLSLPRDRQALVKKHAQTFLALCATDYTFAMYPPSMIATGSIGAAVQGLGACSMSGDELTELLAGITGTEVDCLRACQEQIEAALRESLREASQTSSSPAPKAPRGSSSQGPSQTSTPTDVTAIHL
Compound,IC50 (CDK6/CyclinD3) [nM],IC50 [1] [nM],IC50 [2] [nM],AUC(0-t) [3] [ng·h/mL],Cmax [3] [ng/mL],Tmax [3] [h],HL_ [3] [h],IC50 [4] [nM],IC50 (CDK4/CycD1) [nM]
CCS(=O)(=O)N1CCC(Nc2ncc(Cl)c(-c3cc(F)c4nc(N5CCOC5=O)n(C(C)C)c4c3)n2)CC1 [TB-31],182,≤ 500,≤ 500,4890,923,4,1.34,≤ 500,15.3
"C[C@H]1CCN(C)c2nc3c(F)cc(-c4nc(Nc5ccncc5)ncc4Cl)cc3n21 [TB-137, (S)-5-chloro-4-(9-fluoro-1,4-dimethyl-1,2,3,4-tetrahydrobenzo[4,5]imidazo[1,2-a]pyrimidin-7-yl)-N-(pyridin-4-yl)pyrimidin-2-amine]",175,≤ 500,≤ 500,3670,1240,0.83,4.10,≤ 500,28.3
C[C@H]1CCN(C)c2nc3c(F)cc(-c4cc(N[C@@H]5CCOC[C@H]5O)ncc4Cl)cc3n21 [TB-149],90.8,≤ 500,≤ 500,25400,4160,1.17,1.99,≤ 500,5.3
C[C@H]1CCN(c2ccccc2F)c2nc3c(F)cc(-c4nc(N[C@@H]5CCOC[C@H]5O)ncc4Cl)cc3n21 [TC-12],45.7,≤ 500,≤ 500,1290,417,1,2.55,≤ 500,1.9
CC(C)n1c(N2CCOC2=O)nc2c(F)cc(-c3nc(N[C@@H]4CCOC[C@H]4O)ncc3Cl)cc21 [TB-24],143,≤ 500,≤ 500,4500,677,1.67,3.14,≤ 500,10.1
C[C@H]1CCN(c2ccccc2)c2nc3c(F)cc(-c4nc(N[C@@H]5CCOC[C@H]5O)ncc4Cl)cc3n21 [TA-33],94.2,,,2170,262,4.67,,,3.4
CCN1CCN(Cc2ccc(Nc3ncc(Cl)c(-c4cc(F)c5nc(N(C)C)n(C(C)C)c5c4)n3)nc2)CC1 [TB-16],44.6,≤ 500,≤ 500,,,,,≤ 500,6.92
"CC(C)n1c(N2CC(O)C2)nc2c(F)cc(-c3nc(N[C@@H]4CCOC[C@H]4O)ncc3Cl)cc21 [TB-14, 1-(6-(5-chloro-2-(((3S,4R)-3-hydroxytetrahydro-2H-pyran-4-yl)amino)pyrimidin-4-yl)-4-fluoro-1-isopropyl-1H-benzo[d]imidazol-2-yl)azetidin-3-ol]",235,≤ 500,≤ 500,,,,,≤ 500,6.37
"CC(C)n1c(N(C)CCO)nc2c(F)cc(-c3nc(N[C@@H]4CCOC[C@H]4O)ncc3Cl)cc21 [TB-9, (3S,4R)-4-((5-chloro-4-(4-fluoro-2-((2-hydroxyethyl)(methyl)amino)-1-isopropyl-1H-benzo[d]imidazol-6-yl)pyrimidin-2-yl)amino)tetrahydro-2H-pyran-3-ol]",223,500 to 2000,≤ 500,,,,,≤ 500,40.1
"CC(C)n1c(N2CC[C@H](O)C2)nc2c(F)cc(-c3nc(N[C@@H]4CCOC[C@H]4O)ncc3Cl)cc21 [TB-6, (S)-1-(6-(5-chloro-2-(((3S,4R)-3-hydroxytetrahydro-2H-pyran-4-yl)amino)pyrimidin-4-yl)-4-fluoro-1-isopropyl-1H-benzo[d]imidazol-2-yl)pyrrolidin-3-ol]",190,500 to 2000,≤ 500,,,,,≤ 500,10.8
